Among the test systems are UO-31; RXF 393; CCRF-CEM; 786-0; HT-29; CAKI-1; BT-549; RPMI-8226; SNB-75; SNB-19; SF-539; MOLT-4; A498; U-251; HCC 2998; SF-295; HCT-15; SK-OV-3; Hs-578T; TK-10.
Holding throughout (assay): growth of human tumour cells (NCI), 48 h

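48-hour exposure; five concentrations; linearly interpolated endpoints. GI50: concentration for 50% inhibition of growth.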 The source made the active and inactive calls. Cut-off read from the data, not from the text of the source: active = GI50 up to about 1.1 µM and inactive = higher.

In the case of `COC1(OC)C(/C(N)=C\O)=NC(C)(C)N1O`, the GI50 in the experiment with UO-31 is > 100 µM (inactive); in the experiment on RXF 393 it was > 100 µM (inactive); in the experiment on CCRF-CEM it was 37.1 µM (inactive); in the experiment with 786-0, > 100 µM (inactive); in the experiment on HT-29 it was > 100 µM (inactive); in the experiment on CAKI-1 it was > 100 µM (inactive). The GI50 in the experiment with BT-549 was > 100 µM (inactive); in the experiment with RPMI-8226, > 100 µM (inactive); in the experiment on SNB-75 it was 66.2 µM (inactive); in the experiment with SNB-19 it was > 100 µM (inactive); in the experiment on SF-539 it was > 100 µM (inactive); in the experiment on MOLT-4, 66.5 µM (inactive). Besides, the GI50 with A498, with U-251, with HCC 2998 and with SF-295 was > 100 µM (inactive) throughout.

As for `O=C(O)CCc1ccc2c(c1)CC1(Cc3ccccc3C1)C2`, the GI50 in the experiment on UO-31 is > 100 µM (inactive); in the experiment with RXF 393 it was > 100 µM (inactive); with HCT-15 it was above 100 µM; in the experiment with CCRF-CEM it was 80 µM (inactive); in the experiment on 786-0 it was > 100 µM (inactive); in the experiment with HT-29, > 100 µM (inactive). Further, the GI50 in the experiment with RPMI-8226 is > 100 µM (inactive); in the experiment with SNB-75, < 0.01 µM (active); in the experiment on SK-OV-3 it was > 100 µM (inactive); in the experiment with SF-539, > 100 µM (inactive); in the experiment on MOLT-4, > 100 µM (inactive); in the experiment with A498, > 100 µM (inactive). Also, the GI50 with U-251, in the experiment on Hs-578T, with HCC 2998, in the experiment on SF-295 and with TK-10 was > 100 µM (inactive) in each case.

For `C=CCOC(OCC=C)/C(Br)=C/C`, the GI50 with UO-31 is 34.9 µM (inactive); with RXF 393, 29.2 µM (inactive); with HCT-15, 24 µM; in the experiment on CCRF-CEM it was 10.3 µM (inactive); in the experiment on 786-0, 11.2 µM (inactive); in the experiment with HT-29 it was 20.2 µM (inactive). Moreover, the GI50 is 16.7 µM (inactive) in the experiment with CAKI-1; > 100 µM (inactive) in the experiment with RPMI-8226; > 100 µM (inactive) in the experiment with SNB-75; > 100 µM (inactive) with SNB-19; > 100 µM (inactive) in the experiment with SK-OV-3; > 100 µM (inactive) in the experiment on A498. Further, the GI50 is 59.2 µM (inactive) with U-251; 26.8 µM (inactive) in the experiment on Hs-578T; 80.9 µM (inactive) in the experiment on HCC 2998; > 100 µM (inactive) in the experiment on SF-295; > 100 µM (inactive) in the experiment with TK-10.

Turning to `C=C(C)[C@@]1(OC(=O)c2cc([N+](=O)[O-])cc([N+](=O)[O-])c2)C[C@@H]2CCCC[C@@H]21`, the GI50 with UO-31 was 16.4 µM (inactive); in the experiment on HCT-15, above 100 µM; with CCRF-CEM it was > 100 µM (inactive); in the experiment on 786-0, > 100 µM (inactive); in the experiment with HT-29, 47.9 µM (inactive); in the experiment on CAKI-1, > 100 µM (inactive). The GI50 is > 100 µM (inactive) in the experiment with BT-549; 45.4 µM (inactive) with RPMI-8226; > 100 µM (inactive) in the experiment on SNB-75; > 100 µM (inactive) in the experiment on SNB-19; > 100 µM (inactive) in the experiment on SK-OV-3; > 100 µM (inactive) in the experiment on SF-539. The GI50 is > 100 µM (inactive) in the experiment with MOLT-4; > 100 µM (inactive) in the experiment with U-251; > 100 µM (inactive) in the experiment on Hs-578T; 59.6 µM (inactive) in the experiment on HCC 2998; 72.9 µM (inactive) in the experiment with SF-295; > 100 µM (inactive) in the experiment on TK-10.

As for `CCOC(=O)[C@@H]1ON2O[C@H](OC3CCCC3(c3ccccc3)c3ccccc3)C[C@H]3OC(=O)[C@@H]1C32` (stereo not given in full), the GI50 in the experiment on UO-31 is 37.6 µM (inactive); in the experiment on RXF 393, 11.1 µM (inactive); with HCT-15, 48.3 µM; in the experiment on CCRF-CEM, 26.3 µM (inactive); in the experiment on 786-0, 78 µM (inactive); in the experiment with HT-29, 23.3 µM (inactive). Also, the GI50 in the experiment on CAKI-1 was 22.9 µM (inactive); with RPMI-8226 it was 35.6 µM (inactive); with SNB-75, 71.4 µM (inactive); in the experiment with SK-OV-3, > 100 µM (inactive); with SF-539, 65 µM (inactive); in the experiment with MOLT-4, 45 µM (inactive). Further, the GI50 in the experiment on A498 was 35.2 µM (inactive); in the experiment with U-251 it was 52.4 µM (inactive); in the experiment on Hs-578T, 49.4 µM (inactive); in the experiment on HCC 2998 it was 52.1 µM (inactive); in the experiment on SF-295, > 100 µM (inactive); with TK-10, 81.3 µM (inactive).

Take `Clc1ccc(/C=N/c2ccc(Oc3ccc(Cl)cc3)c(Cl)c2)cc1`: the GI50 was 11.5 µM (inactive) in the experiment on UO-31; 21.8 µM with HCT-15; 15.8 µM (inactive) in the experiment on CCRF-CEM; 17.9 µM (inactive) in the experiment on 786-0; 23.7 µM (inactive) with HT-29; 6.41 µM (inactive) with CAKI-1. Besides, the GI50 in the experiment on BT-549 was 21.7 µM (inactive); with RPMI-8226, 28.4 µM (inactive); in the experiment with SNB-75, 22.5 µM (inactive); in the experiment with SNB-19, 23 µM (inactive); with SK-OV-3, 27 µM (inactive); in the experiment on SF-539, 17.2 µM (inactive). The GI50 in the experiment with MOLT-4 was 25.5 µM (inactive); with U-251, 23.9 µM (inactive); in the experiment with Hs-578T it was 21.5 µM (inactive); in the experiment with HCC 2998 it was 21.5 µM (inactive); in the experiment with SF-295, 18.8 µM (inactive); in the experiment with TK-10 it was 50.7 µM (inactive).

Turning to `Clc1ccc(Cl)c(/N=N/c2cc3c4c(c2)CCCN4CCC3)c1`, the GI50 with UO-31 was > 10 µM (inactive); with RXF 393 it was > 10 µM (inactive); with HCT-15, above 10 µM; in the experiment on CCRF-CEM, > 10 µM (inactive); in the experiment on 786-0, > 10 µM (inactive); in the experiment with HT-29, > 10 µM (inactive). In addition, the GI50 with CAKI-1, in the experiment on RPMI-8226, with SNB-75, in the experiment with SNB-19, in the experiment on SK-OV-3 and in the experiment with SF-539 was > 10 µM (inactive) each time. For the same compound, the GI50 in the experiment with MOLT-4, in the experiment with A498, with U-251, in the experiment with Hs-578T, in the experiment on HCC 2998 and with SF-295 was > 10 µM (inactive) in each case. Moreover, in the experiment with TK-10, the GI50 is > 10 µM (inactive).

As to `O=C(/C=C/c1ccc(O)c(O)c1)OCc1ccccc1` [BENZYL CAFFEATE], the GI50 with UO-31 is 13.7 µM (inactive); in the experiment with RXF 393, 16.8 µM (inactive); in the experiment with HCT-15 it was 5.4 µM; in the experiment on 786-0 it was 14.7 µM (inactive); in the experiment with HT-29, 32.3 µM (inactive); in the experiment on CAKI-1, 27 µM (inactive). Further, the GI50 in the experiment with RPMI-8226 was 10.6 µM (inactive); in the experiment with SNB-19, 27.6 µM (inactive); in the experiment with SK-OV-3 it was 18.3 µM (inactive); in the experiment with SF-539, 7.06 µM (inactive); in the experiment on MOLT-4 it was 2.28 µM (inactive); with A498 it was 20.5 µM (inactive). The GI50 was 14.5 µM (inactive) in the experiment with U-251; 9.71 µM (inactive) in the experiment on Hs-578T; 36.6 µM (inactive) in the experiment on HCC 2998; 11.2 µM (inactive) in the experiment on SF-295; 15.4 µM (inactive) in the experiment on TK-10.

These data come from ChEMBL document CHEMBL1201862, “PubChem BioAssay data set” (2004).
